Reference: US20260284076A1, “TESTOSTERONE AND DIFLUOROMETHYLORNITHINE COMBINATION THERAPY FOR PROSTATE CANCER” (The Johns Hopkins University, priority 2023, published 2026)
“Also recorded” adds a separate entry of the source. Structures can show the parent of a compound that is named as a salt.

Tests used:
LNCaP cells [1] = assay: RNAseq of treated LNCaP cells; assay type: cell-based, human; settings: 96 hours
Source text: Overlap of differentially expressed transcripts occurring due to treatment as per (FIG. 27A). […] Change in RNA transcript abundance of genes located with the 8q24 topologically associated domain (TAD) in LNCaP cells treated as per (FIG. 27A).

[2] = test system: MYC in LNCaP and VCaP cells; assay: MYC expression by western blot, RT-PCR, RNAseq; assay type: cell-based, human; settings: R1881 10 nM, DFMO 5 mM, 96 hours; monohydrochloride, monohydrate
Source text: (§1) FIG. 5A, FIG. 5B, FIG. 5C, FIG. 5D, and FIG. 5E show: FIG. 5A, MYC expression by IHC in a metastatic tumor biopsy from a patient before and after 3 months of BAT. FIG. 5B, Quantification of MYC protein expression from metastatic tumor biopsies from patients before and after 3 months of BAT color-coded by response (non-responder NR; responder R). […] Vinculin was used as a loading control. FIG. 5D, Principal component analysis of RNA and ATAC sequencing of LNCaP cells treated for 5 days with R1881 10 nM (SPA). […] Vinculin was used as a loading control;

[3] = test system: hypusinated eIF5A in PCa cell lines; assay: Total and hypusinated eIF5A by western blot; assay type: cell-based, human
Source text: as §1
FIG. 24A. Schematic highlighting generation of hypusinated eIF5A from spermidine. […] Vinculin is used as a loading control. Representative blots of n=2 independent experiments;

[4] = cited from earlier work
[5] = test system: AMD1 transcript in LNCaP cells; assay: AMD1 transcript stability after actinomycin, RT-PCR; assay type: cell-based, human
LNCaP cells [6] = assay: Colony formation (clonal survival); assay type: cell-based, human; settings: with or without R1881 0.5 nM, 96 hours, colonies at 14 days; monohydrochloride, monohydrate
Source text: (§2) FIG. 3A. […] Ns, not significant. FIG. 3B. […] Ns, not significant. FIG. 3C. […] P values by ANOVA;

VCaP cells = assay: Colony formation (clonal survival); assay type: cell-based, human; settings: with or without R1881 0.5 nM, 96 hours, colonies at 14 days; monohydrochloride, monohydrate
Source text: as §2

[7] = test system: chronically castrated patients with rising PSA and CRPC; assay: Pilot study of BAT with oral etoposide, then second line therapy post-BAT; assay type: in vivo, human; settings: post-BAT
Source text: Based on the preclinical results and potential mechanisms for growth inhibition that include androgen-induced double strand breaks and stabilization of AR preventing relicensing, we have conducted a pilot study evaluating the efficacy and safety of pharmacologic doses of testosterone to produce high dose T levels in conjunction with oral etoposide in chronically castrated patients with rising PSA and CRPC (37). Patients who had been continuously castrate for more than one year with minimal metastatic disease burden (≤5 total bone metastases and ≤10 total sites of metastases) and/or rising PSA were eligible. To achieve rapid cycling between high dose and near castrate serum T (i.e., BAT) patients received intramuscular injection of 400 mg testosterone cypionate every 28 days. For the first 3 cycles of therapy patients received BAT plus oral etoposide 100 mg po/day days 1-14 of a 28-day cycle. After 3 cycles PSA response and objective response were assessed. Those patients with a PSA that was declining from peak levels and no objective evidence of disease progression or worsening pain were continued on therapy. Given the toxicity associated with etoposide and the lack of clinical response in an earlier trial (38), patients who responded after 3 cycles of testosterone plus etoposide were continued on testosterone alone based on protocol amendment.

CRPC = settings: post-abiraterone, pre-chemotherapy setting; cited from earlier work
[8] = test system: asymptomatic patients with CRPC progressing on Abi; assay: TRANSFORMER randomized Phase II study, BAT vs. Enza with crossover; assay type: in vivo, human
Method: The TRANSFORMER study (NCT02286921) was a DOD-sponsored randomized Phase II study designed to compare the efficacy of BAT vs. Enza in asymptomatic patients with CRPC progressing on Abi, FIG. 19A (2). The study was conducted at 17 academic centers across the US. The study was coordinated by the Prostate Cancer Disease Group clinical research team at Johns Hopkins, who performed regulatory oversight, study/site monitoring, and data analyses. From 2015-2018, 195 patients underwent 1:1 randomization to either standard dose Enza (n=101) or BAT (n=94) at 400 mg IM every 28 days. The primary endpoint was clinical/radiographic PFS. At time of progression, patients were given the option to crossover to the alternate therapy. The trial was designed to show a 50% improvement in the primary endpoint for BAT vs. Enza. […] Objective response was 24.4% for BAT and 4.2% for Enza (p=0.067). Best PSA50 was 26.4% for BAT and 25.5% for Enza (p=0.697).
At time of progression, 46 (49%) of patients on the Enza arm crossed over to receive BAT and 34 (33.7%) crossed over from BAT to receive Enza and were available for analysis. Remarkably, the PSAso response for patients who received Enza after BAT was 72.7% compared to 25.5% for patients receiving Enza immediately after Abi, FIG. 19D. Objective response in the Enza post-BAT patients was 28.6% compared to 4.2% post-Abi, FIG. 19B. […] The logical extension of these findings and the hypothesis of this proposal is that patients are likely to respond again to further repeat cycles of BAT and Enza, but this treatment strategy has yet to be explored in the clinical trial setting.

[9] = test system: metastatic CRPC, pre-chemotherapy setting; settings: cited from earlier work
CRPC post docetaxel = settings: post-docetaxel setting; cited from earlier work
[10] = test system: patients with CRPC progressing on Enza (Cohort A) or Abi (Cohort B); assay type: in vivo, human; settings: re-exposed to agent progressed on before BAT
Source text: The RESTORE study (NCT02090114) was an NIH sponsored Phase II study designed to assess the safety and efficacy of BAT in patients (n=30 per cohort) with CRPC progressing on Enza (Cohort A) or Abi (Cohort B), FIG. 18A (34,39). The primary endpoint of the first part of the study was to assess PSA response to BAT. Secondary endpoints included objective response, safety, and quality of life. The second part of the study was to determine in BAT could re-sensitize patients to repeat exposure to second line therapy that patients were progressing on prior to receiving BAT. Thus, patients progressing on Enza were re-exposed to Enza after BAT and similarly for Abi. Both arms of this study met the primary endpoint. PSA50 response to BAT was 30% in patient's post-Enza and 18% post-Abi, FIG. 18B. […] Overall duration of response to BAT and duration of response to re-exposure was longer in the post-Enza vs. post-Abi cohort. The PSAso response to re-exposure to Enza was 71% vs. only 21% for patients re-exposed to Abi, FIG. 19B (7). A third cohort was later added (Cohort C) for patients progressing on ADT alone. Overall, 90 patients were treated on this study over a 4-year period (2014-2018).

human T lymphocytes = settings: CD3/CD28-stimulated cells, 24 hours, 5 donors
Method: Protein expression of ODC and AR by western blot of human T cells cultured for 24 hours with vehicle control (EtOH 0.1%), SPA, or enzalutamide (ENZA; 10 μM) in the presence of no stimulation or CD3- and CD28-stimulation with dynabeads. Vinculin is used a loading control. FIG. 22J. Quantification of protein expression of ODC by western blot as per (FIG. 22I), displaying data from independent experiments of 5 different donors with indicated sex. P values by unpaired 2-tailed t test;
To assess whether AR regulates expression of polyamine synthesis enzymes in cells beyond prostate, we isolated human T lymphocytes from peripheral blood of 5 donors, treated unstimulated or CD3/CD28-stimulated cells with vehicle control, SPA, or the AR inhibitor enzalutamide for 24 hours, and measured ODC.

With `NCCCC(N)(C(=O)O)C(F)F` (stereo not shown) [DFMO, 2-(difluoromethyl)-ornithine, monohydrochloride, monohydrate] the “differentially expressed transcripts vs VEH” value (LNCaP cells [1]) was “fewer”, the MYC expression [2] was “reduced; also recorded: enhances downregulation of MYC by SPA” and the eIF5A hypusination [3] was “marked reduction”. For the same molecule, the “side-effects of high doses” value ([4]; high doses) was “reversible ototoxicity and myelosuppression”, the “chemoprevention trials of breast and cervix cancer” value ([4]; human, in vivo) was “negative” and the “doses not consistently associated with ototoxicity and myelosuppression” value ([4]; human, in vivo) was “less than 1 g/m2/d”. The “prostate polyamine levels and prostate growth” value ([4]; over one year) was “can reduce prostate polyamine levels and the rate of growth of the prostate”, the “half-life of AMD1 transcript” value ([5]; 96 hours treatment then actinomycin 5 μg/mL) was > 8 h and the “stability of AMD1 transcript” value ([5]; monohydrochloride, monohydrate) was “markedly increased stability; also recorded: stabilizes”. The “clonal survival / colony formation” value (LNCaP cells [6]) was “decreased colony formation” and the “clonal survival / colony formation” value (VCaP cells) was “inhibited clonal survival to a greater extent in R1881-treated cells than vehicle control-treated cells; also recorded: decreased colony formation”.
In the case of `CNC(=O)c1ccc(N2C(=S)N(c3ccc(C#N)c(C(F)(F)F)c3)C(=O)C2(C)C)cc1F` [Enzalutamide, 4-{3-[4-cyano-3-(trifluoromethyl)phenyl]-5,5dimethyl-4-oxo-2-sulfanylideneimidazolidin-1-yl}-2-fluoro-N-methylbenzamide], the “patients with >50% PSA decline on second line therapy” value [7] is listed as 3/4, the “PSA decline upon re-challenge” value ([7]; agent previously progressed on) is listed as 53.2% and the “median rPFS” value (CRPC) is listed as ≤ 6 months. For the same molecule, the PSA50 response ([8]; Enza after BAT (crossover), listed as Enza) was 72.7%, the PSA50 response ([8]; Enza after BAT (crossover), listed as enzalutamide) was 78% and the “Time to PSA progression” value ([8]; Enza immediately post-Abi, without prior BAT) was 3.8 months. For the same molecule, the Objective response ([8]; Enza post-BAT) was 28.6%, the “Time to PSA progression” value ([8]; Enza post-BAT) was 10.9 months and the overall survival ([8]; enzalutamide after prior BAT) was 37 months. It also gave an overall survival ([8]; enzalutamide without prior BAT) of 29 months, a PSA50 response ([8]; initial treatment immediately after Abi, no prior crossover, listed as Enza) of 25.5% and a PSA50 response ([8]; initial treatment immediately after Abi, no prior crossover, listed as enzalutamide) of 25%. The “fold increase in time to PSA progression on Enza” value ([8]; post-BAT vs immediately post-Abi) was ~3 fold, the “clinical/radiographic PFS” value ([8]; randomized arms) was 5.72 m and the Objective response ([8]; randomized arms, post-Abi) was 4.2%. The “hazard ratio, overall survival vs placebo” value ([9]; 95% CI 0.60 to 0.84) was 0.71, the median overall survival ([9]; PREVAIL, enzalutamide group) was 32.4 months and the “>50% decline PSA (%)” value ([9]; PREVAIL) was 78%. The “PSA PFS” value ([9]; PREVAIL) was 11.2, the “TIP (m)” value ([9]; PREVAIL) was 20 m and the improvement in survival (CRPC post docetaxel) was “approximately 5 months”. The “PSA50 response to re-exposure (re-challenge) post-BAT” value [10] was 71% and the ODC protein (human T lymphocytes) was “decreased ODC in all donors”.
